Values joined by “and” are separate entries in the source; they are usually repeats but may differ in a detail not shown here. Equal values may be shown once. Read-outs that look alike come from different tables or passages of the source. Marks after values point to notes of the source that are not given here.
Tests used:
[1] = D/H ratios in urine after oral administration of D2O, HDO metabolic model fit; type: in vivo, human; settings: for mean half-life for the FWD compartment of the HDO models: mean and standard deviation; for Rr, recovery ratio to the administered deuterium / k1, transfer rate from OBD compartment to FWD compartment / k2, transfer rate from FWD compartment to OBD compartment / ka, transfer rate from DT compartment to FWD compartment / ke, excretion rate from FWD compartment: once orally
Procedure: (§1) The total number of volunteers was 42, although some dropped out of the experiment, for various reasons. The data from these volunteers were eliminated. This study lasted 4 years; administration experiments were conducted from September to January, and each volunteer participated in one of the 4 years. […]
(§2) Urine and breath samples were periodically collected from days − 7 to 119, where the first day of the administration was defined as day 0. Urine samples were collected daily, when the volunteers rose in the morning, until day 28, then every two or three days until day 119. Additional samples were collected frequently, after administration. Urine samples were collected at every urination until bedtime, on days of administration. Breath samples were collected immediately prior to the administration, every 20 min from 12:30 to 17:10, and then hourly from 18:00 until bedtime.
(§3) Urine was distilled, and the condensed water was collected for the measurement of D/H ratio, using a mass spectrometer (Iso Prime 100; Elementar, Langenselbold, Germany). Breath samples were collected using an airtight bag. The samples were analysed within 3 days. After purifying the CO2 in the breath using a gas chromatograph (MAT GC; Thermo Electron, Waltham, MA, USA), the ^13C/^12C ratio was measured using a mass spectrometer (Dalta V Advantage; Thermo Electron, Waltham, MA, USA).
(§4) The increments were calculated of D/H and ^13C/^12C ratios above the background values measured for the samples before administration. The ratios were normalised to the same dosage (1 g D or ^13C per 70 kg body weight). When the D/H or ^13C/^12C ratios were below the limits (90% upper confidence limits of the background fluctuation), to cut off the data and any subsequent data were discarded.
(§5) A metabolic model was developed, for each volunteer. For volunteers in the glucose, alanine, palmitic acid, and soybean groups, the model structure of the OBD shown in Fig. 1 was adopted, while for volunteers in the D2O group, the model structure for HDO was adopted. For each model, parameters were determined using the least squares method, using Microsoft Excel version 2007. The detailed procedures have been described previously. […]

[2] = design: method as in PMID 21947005; settings: once orally; individual volunteer; presumed value, no clear second component; from mean residence time of carbon in adipose tissue ref 41; cited from earlier work
[3] = D/H ratios in urine after oral administration of D-labelled compounds and soybean, OBD metabolic model fit; type: in vivo, human
Procedure: as §1
All D-labelled and ^13C-labelled compounds were purchased from Cambridge Isotopes, Inc. (Tewksbury). In each D-labelled molecule, hydrogen bound to carbon was uniformly replaced by D. Such D is not exchangeable to hydrogen in free body water after administration until it is metabolised to HDO, and is called non-exchangeable OBD (Nx-OBD). Exchangeable hydrogen, which was not bound to carbon, such as hydroxyl group hydrogen, was not replaced by D. In each ^13C-labelled compound, ^13C was uniformly labelled.
The D-labelled soybean was harvested three times. The harvested soybeans were boiled, freeze-dried, and then homogenised. The soy powder product was orally administered. To measure the D/H ratio, the soy powder was first immersed in drinking water, to replace exchangeable OBD (Ex-OBD), which was not bound to carbon. After the second freeze-drying process, the D/H ratio was measured using a mass spectrometer (Iso Prime 100; Elementar, Langenselbold, Germany). Buried tritium is defined as the tritium in a large biomolecule that remains in the molecule after rinsing samples with tritium-free water, despite its exchangeable position in the molecule. A fraction of buried deuterium was considered to remain in soybean powder. […] Therefore, we considered that effect of the amount of buried deuterium on the measured D/H ratio of soy powder was negligible. The hydrogen content of the soybean powders (gH/gDW) was measured using a gas chromatograph (NCH-22F; Sumika Chemical Analysis Service, Oosaka, Japan). The OBD content of the soybean powders (gOBD/gDW) were calculated from their D/H ratio and hydrogen content, and are summarised in Table 7.
as §2, §3, §4, §5

[4] = design: method as in PMID 32424291; settings: cited from earlier work; for d1, ratio of organic compounds to inorganic compounds immediately after administration: 13C-labelled compound experiments, mean ± standard deviation ref 31
[5] = intravenous injection ref 28; cited from earlier work

In the case of `[2H]O[2H]` [D2O], the “mean half-life for the FWD compartment of the HDO models” value (“mean half-life for the FWD compartment” for short) ([1]; combined group of volunteers) is reported as 240 ± 72 h, the “mean half-life for the FWD compartment” value ([1]; females (n = 6)) is reported as 240 ± 72 h and the “mean half-life for the FWD compartment” value ([1]; males (n = 3)) is reported as 240 ± 48 h. The “Rr, recovery ratio to the administered deuterium” value (shortened to “Rr, recovery ratio”) ([1]; all volunteers average) was 0.93, the “k1, transfer rate from OBD compartment to FWD compartment” value (from here on “k1, transfer rate from OBD compartment”) ([1]; all volunteers average) was 0.010 day⁻¹ and the “k2, transfer rate from FWD compartment to OBD compartment” value (“k2, transfer rate from FWD compartment” for short) ([1]; all volunteers average) was 0.010 day⁻¹. For the same compound, the “ka, transfer rate from DT compartment to FWD compartment” value (“ka, transfer rate from DT compartment” for short) ([1]; all volunteers average) was 26 day⁻¹, the “ke, excretion rate from FWD compartment” value ([1]; all volunteers average) was 0.071 day⁻¹ and the “Rr, recovery ratio” value ([1]; female average) was 0.93. For the same compound, the “k1, transfer rate from OBD compartment” value ([1]; female average) was 0.011 day⁻¹, the “k2, transfer rate from FWD compartment” value ([1]; female average) was 0.013 day⁻¹ and the “ka, transfer rate from DT compartment” value ([1]; female average) was 28 day⁻¹. For the same compound, the “ke, excretion rate from FWD compartment” value ([1]; female average) was 0.071 day⁻¹, the “Rr, recovery ratio” value ([1]; individual female volunteers) was 1.0 and 0.99 and 0.70 and 0.97 (2×) and 0.93 and the “k1, transfer rate from OBD compartment” value ([1]; individual female volunteers) was 0.0067 day⁻¹ and 0.0074 day⁻¹ and 0.019 day⁻¹. The “k2, transfer rate from FWD compartment” value ([1]; individual female volunteers) was 0.016 day⁻¹ and 0.010 day⁻¹, the “ka, transfer rate from DT compartment” value ([1]; individual female volunteers) was 8.9 day⁻¹ and 23 day⁻¹ and 92 day⁻¹ and 14 day⁻¹ and 6.4 day⁻¹ and 21 day⁻¹ and the “ke, excretion rate from FWD compartment” value ([1]; individual female volunteers) was 0.056 day⁻¹ and 0.098 day⁻¹ and 0.081 day⁻¹ and 0.043 day⁻¹ and 0.078 day⁻¹ and 0.072 day⁻¹. For the same compound, the “Rr, recovery ratio” value ([1]; individual male volunteers) was 0.91 and 1.0 and 0.92, the “k1, transfer rate from OBD compartment” value ([1]; individual male volunteers) was 0.0091 day⁻¹ and 0.0083 day⁻¹ and the “k2, transfer rate from FWD compartment” value ([1]; individual male volunteers) was 0.0092 day⁻¹ and 0.0065 day⁻¹. For the same compound, the “ka, transfer rate from DT compartment” value ([1]; individual male volunteers) was 39 day⁻¹ and 8.6 day⁻¹ and 21 day⁻¹, the “ke, excretion rate from FWD compartment” value ([1]; individual male volunteers) was 0.059 day⁻¹ and 0.063 day⁻¹ and 0.090 day⁻¹ and the “Rr, recovery ratio” value ([1]; male average) was 0.94. The “k1, transfer rate from OBD compartment” value ([1]; male average) was 0.0087 day⁻¹, the “k2, transfer rate from FWD compartment” value ([1]; male average) was 0.0079 day⁻¹ and the “ka, transfer rate from DT compartment” value ([1]; male average) was 23 day⁻¹. The “ke, excretion rate from FWD compartment” value ([1]; male average) was 0.071 day⁻¹ and the “k2, transfer rate from FWD compartment” value [2] was 0.0017* d^−1.
In the case of `OC[C@H]1OC(O)[C@H](O)[C@@H](O)[C@@H]1O` (stereo partly drawn) [D-labelled glucose], the “ke, excretion rate from FWD compartment” value ([3]; once orally, all volunteers average) is reported as 0.073 day⁻¹, the “ke, excretion rate from FWD compartment” value ([3]; once orally, female average) is reported as 0.067 day⁻¹ and the “ke, excretion rate from FWD compartment” value ([3]; once orally, individual female volunteers) is reported as 0.072 d^−1 (2×) and 0.081 d^−1 and 0.057 d^−1 and 0.073 d^−1 and 0.049 d^−1. The “ke, excretion rate from FWD compartment” value ([3]; once orally, individual male volunteers) was 0.085 d^−1 (2×) and 0.097 d^−1 and 0.050 d^−1 and 0.078 d^−1 and the “ke, excretion rate from FWD compartment” value ([3]; once orally, male average) was 0.079 day⁻¹.
In the case of `CCCCCCCCCCCCCCCC(=O)O` [D-labelled palmitic acid], the “ke, excretion rate from FWD compartment” value ([3]; palmitic acid group, orally once daily for four successive days, all volunteers average) is reported as 0.070 day⁻¹, the “ke, excretion rate from FWD compartment” value ([3]; palmitic acid group, orally once daily for four successive days, female average) is reported as 0.083 day⁻¹ and the “ke, excretion rate from FWD compartment” value ([3]; palmitic acid group, orally once daily for four successive days, individual female volunteers) is reported as 0.059 day⁻¹ and 0.064 day⁻¹ and 0.11 day⁻¹ and 0.099 day⁻¹. The “ke, excretion rate from FWD compartment” value ([3]; palmitic acid group, orally once daily for four successive days, individual male volunteers) was 0.059 day⁻¹ and 0.055 day⁻¹ and 0.078 day⁻¹ and 0.063 day⁻¹ and 0.040 day⁻¹ and the “ke, excretion rate from FWD compartment” value ([3]; palmitic acid group, orally once daily for four successive days, male average) was 0.059 day⁻¹.
For `NCC(=O)O` [^13C-labelled glycine], the “d1, ratio of organic compounds to inorganic compounds immediately after administration” value (“d1, ratio of organic compounds” below) [4] is given as 0.29 ± 0.04.
In the case of `CCCCC/C=C\C/C=C\CCCCCCCC(=O)O` [^13C-labelled linoleic acid], the “d1, ratio of organic compounds” value [4] is given as 0.29 ± 0.12 and the “reported ratio of unsaturated fatty acids (d1) by the 13C-labelled experiment” value [4] is given as 29 ± 12%.
In the case of `CCCCCCCC/C=C\CCCCCCCC(=O)O` [^13C-labelled oleic acid], the “d1, ratio of organic compounds” value [4] is given as 0.35 ± 0.11 and the “reported ratio of unsaturated fatty acids (d1) by the 13C-labelled experiment” value [4] is given as 35 ± 11%.
In the case of `N[C@@H](Cc1ccccc1)C(=O)O` [^13C-labelled phenylalanine], the “d1, ratio of organic compounds” value [4] is listed as 0.25 ± 0.04.
In the case of `O=[14C]([O-])O.[Na+]` [^14C-bicarbonate], the “half-life of carbon dioxide” value [5] is given as 5 min.

Reference: PMC7854751, “Estimation of radiation dose from ingested tritium in humans by administration of deuterium-labelled compounds and food” (Scientific Reports, 2021)
